Measurements published in the supplement of paper PMC6045584.
± gives the standard deviation of the averaged measurements.

Key:
[1] = compound: CN1CCN(c2nc(C3=C(c4c[nH]c5ccccc45)C(=O)NC3=O)c3ccccc3n2)CC1 [SOTRASTAURIN/AEB071]; assay: surviving fraction relative to DMSO-only wells; higher = less growth inhibition; conditions: exposure time: 5 days
Procedure, shortened: (§1)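 Viability values are CellTiter-Glo luminescence readings, given as surviving fraction against the median of DMSO-only wells. The readings were taken after 10 minutes at room temperature, following five days of continuous exposure to inhibitors at 0.5, 1, 5, 10, 50, 100, 500 and 1000 nM that began 24 hours after log-phase tumour cell lines were seeded at 250–500 cells per well in 384-well plates. Every line was screened three times and kept only if replicate Pearson r >0.7 and median Z' >0.3.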

[2] = compound: C[C@]12CC[C@H](O)CC1=CC[C@@H]1[C@@H]2CC[C@]2(C)C(c3cccnc3)=CC[C@@H]12 [ABIRATERONE]; assay: as above; conditions: exposure time: 5 days
Procedure, shortened: as §1

Test System | surviving fraction ([1]; 0.5 nM) | surviving fraction ([1]; 1 nM) | surviving fraction ([1]; 5 nM) | surviving fraction ([1]; 10 nM) | surviving fraction ([1]; 50 nM) | surviving fraction ([1]; 100 nM) | surviving fraction ([1]; 500 nM) | surviving fraction ([1]; 1000 nM) | surviving fraction ([2]; 0.5 nM) | surviving fraction ([2]; 1 nM) | surviving fraction ([2]; 5 nM) | surviving fraction ([2]; 10 nM) | surviving fraction ([2]; 50 nM) | surviving fraction ([2]; 100 nM) | surviving fraction ([2]; 500 nM) | surviving fraction ([2]; 1000 nM)
DU4475 BREAST | 1.02 ± 0.16 | 1.2 ± 0.081 | 1.05 ± 0.038 | 0.986 ± 0.027 | 0.989 ± 0.068 | 1.08 ± 0.068 | 0.901 ± 0.24 | 0.844 ± 0.038 | 0.872 ± 0.039 | 1.02 ± 0.19 | 0.991 ± 0.14 | 0.983 ± 0.12 | 0.989 ± 0.15 | 0.917 ± 0.32 | 0.998 ± 0.23 | 0.938 ± 0.34
HOS BONE | 1.021 ± 0.0061 | 1.01 ± 0.014 | 1.04 ± 0.023 | 1.014 ± 0.008 | 1.05 ± 0.014 | 1.03 ± 0.013 | 1.02 ± 0.018 | 0.974 ± 0.016 | 1.03 ± 0.02 | 1.025 ± 0.0032 | 1.08 ± 0.029 | 1.02 ± 0.014 | 1.09 ± 0.019 | 1.095 ± 0.0072 | 1.08 ± 0.028 | 1.06 ± 0.025
OS25HAL BONE | 1.02 ± 0.057 | 1.006 ± 0.0082 | 1.03 ± 0.039 | 1.03 ± 0.014 | 1.09 ± 0.018 | 1.04 ± 0.042 | 1.09 ± 0.025 | 1.03 ± 0.038 | 1.02 ± 0.02 | 1.01 ± 0.011 | 1.039 ± 0.0055 | 0.989 ± 0.021 | 1.106 ± 0.0096 | 1.08 ± 0.017 | 1.07 ± 0.053 | 1.07 ± 0.034
CAL120 BREAST | 1.03 ± 0.042 | 1.01 ± 0.054 | 1.01 ± 0.03 | 1.02 ± 0.035 | 0.985 ± 0.051 | 0.955 ± 0.035 | 0.976 ± 0.046 | 0.981 ± 0.009 | 0.954 ± 0.011 | 1 ± 0.015 | 1.01 ± 0.013 | 1.01 ± 0.011 | 1.04 ± 0.059 | 1.04 ± 0.041 | 1.05 ± 0.028 | 0.988 ± 0.037
SUM149.B1*.S BREAST | 1.11 ± 0.028 | 1.08 ± 0.06 | 1.06 ± 0.093 | 1.07 ± 0.061 | 1.11 ± 0.059 | 1.04 ± 0.024 | 1.04 ± 0.1 | 1.03 ± 0.042 | 1.11 ± 0.055 | 1.11 ± 0.047 | 1.2 ± 0.05 | 1.12 ± 0.071 | 1.21 ± 0.062 | 1.21 ± 0.074 | 1.19 ± 0.028 | 1.2 ± 0.078
JURKAT HAEMATOPOIETIC AND LYMPHOID TISSUE | 1.08 ± 0.047 | 1.13 ± 0.017 | 1.09 ± 0.042 | 1.08 ± 0.041 | 1.06 ± 0.012 | 1.03 ± 0.022 | 1.06 ± 0.044 | 1.05 ± 0.032 | 1.09 ± 0.027 | 1.106 ± 0.0066 | 1.09 ± 0.022 | 1.07 ± 0.016 | 1.08 ± 0.018 | 1.03 ± 0.037 | 1.01 ± 0.022 | 0.995 ± 0.029
YAMATO SYNOVIAL | 1.14 ± 0.068 | 1.23 ± 0.018 | 1.28 ± 0.13 | 1.38 ± 0.11 | 0.962 ± 0.096 | 0.968 ± 0.032 | 0.945 ± 0.024 | 0.96 ± 0.059 | 1.37 ± 0.033 | 1.52 ± 0.058 | 1.48 ± 0.12 | 1.45 ± 0.14 | 1.39 ± 0.14 | 1.46 ± 0.078 | 1.38 ± 0.025 | 1.22 ± 0.14
MG63 BONE | 1.02 ± 0.053 | 1.05 ± 0.047 | 1.06 ± 0.049 | 1.09 ± 0.027 | 1.07 ± 0.04 | 1.03 ± 0.065 | 1.02 ± 0.042 | 0.937 ± 0.029 | 1.09 ± 0.022 | 1.06 ± 0.038 | 1.11 ± 0.057 | 1.09 ± 0.042 | 1.09 ± 0.021 | 1.07 ± 0.045 | 1.05 ± 0.041 | 1.03 ± 0.017
COLO320DM LARGE INTESTINE | 1.09 ± 0.06 | 1.05 ± 0.14 | 1 ± 0.046 | 1.08 ± 0.12 | 1.01 ± 0.084 | 1.07 ± 0.047 | 0.994 ± 0.056 | 1.05 ± 0.059 | 1.13 ± 0.084 | 1.09 ± 0.033 | 1.11 ± 0.07 | 1.17 ± 0.057 | 1.26 ± 0.19 | 1.1 ± 0.062 | 1.2 ± 0.38 | 1.02 ± 0.027
CADOES1 SOFT TISSUE | 1.04 ± 0.11 | 0.908 ± 0.11 | 1 ± 0.18 | 0.926 ± 0.1 | 0.923 ± 0.019 | 0.973 ± 0.14 | 1.04 ± 0.055 | 0.962 ± 0.18 | 0.958 ± 0.12 | 1.03 ± 0.061 | 0.978 ± 0.11 | 0.943 ± 0.04 | 1 ± 0.025 | 1.11 ± 0.055 | 1.04 ± 0.14 | 0.955 ± 0.061
SG27 HEADNECK | 1.1 ± 0.093 | 1.11 ± 0.04 | 0.984 ± 0.051 | 0.984 ± 0.1 | 1.13 ± 0.13 | 1.1 ± 0.041 | 1.15 ± 0.058 | 1.26 ± 0.1 | 1.09 ± 0.064 | 0.971 ± 0.11 | 1.05 ± 0.067 | 0.927 ± 0.039 | 0.867 ± 0.066 | 0.997 ± 0.08 | 0.957 ± 0.14 | 0.985 ± 0.07
MHM BONE | 1.04 ± 0.022 | 1.04 ± 0.05 | 1.07 ± 0.032 | 1.04 ± 0.046 | 1.11 ± 0.016 | 1.089 ± 0.01 | 1.078 ± 0.0072 | 1.05 ± 0.032 | 1.03 ± 0.038 | 1.005 ± 0.0032 | 1.03 ± 0.027 | 1.05 ± 0.02 | 1.07 ± 0.024 | 1.05 ± 0.015 | 1.03 ± 0.018 | 1.05 ± 0.034
SCC36 HEADNECK | 1.03 ± 0.063 | 0.903 ± 0.069 | 1.03 ± 0.068 | 1.027 ± 0.0046 | 0.843 ± 0.039 | 0.77 ± 0.033 | 0.838 ± 0.033 | 0.77 ± 0.048 | 1.04 ± 0.094 | 1.09 ± 0.022 | 1.24 ± 0.08 | 1.14 ± 0.072 | 1.15 ± 0.046 | 1.1 ± 0.15 | 1.02 ± 0.061 | 1.02 ± 0.034
MDAMB453 BREAST | 0.996 ± 0.053 | 0.971 ± 0.081 | 1.01 ± 0.058 | 1 ± 0.076 | 0.915 ± 0.048 | 0.969 ± 0.1 | 0.951 ± 0.014 | 0.895 ± 0.05 | 1.05 ± 0.053 | 1.04 ± 0.13 | 1.15 ± 0.028 | 1.06 ± 0.072 | 1.09 ± 0.086 | 1.08 ± 0.0082 | 1.01 ± 0.029 | 1.006 ± 0.0072
HCC1806 BREAST | 0.958 ± 0.19 | 0.944 ± 0.041 | 1.17 ± 0.078 | 1.08 ± 0.017 | 0.887 ± 0.026 | 1.01 ± 0.096 | 0.9673 ± 0.0067 | 0.908 ± 0.066 | 1.12 ± 0.11 | 1.08 ± 0.17 | 1.19 ± 0.024 | 1.08 ± 0.021 | 1.19 ± 0.051 | 1.2 ± 0.11 | 1.05 ± 0.085 | 0.953 ± 0.12
HOSMNG BONE | 0.939 ± 0.079 | 0.932 ± 0.025 | 0.994 ± 0.035 | 0.947 ± 0.047 | 1.05 ± 0.12 | 0.963 ± 0.028 | 1.11 ± 0.061 | 1.01 ± 0.05 | 0.985 ± 0.035 | 0.99 ± 0.049 | 1 ± 0.077 | 0.973 ± 0.039 | 1.08 ± 0.042 | 1.1 ± 0.087 | 1.05 ± 0.096 | 1.08 ± 0.014
SG32 HEADNECK | 0.943 ± 0.088 | 1.13 ± 0.18 | 1.09 ± 0.22 | 1.05 ± 0.057 | 0.792 ± 0.084 | 0.698 ± 0.27 | 0.827 ± 0.13 | 0.795 ± 0.08 | 1.18 ± 0.12 | 1.29 ± 0.2 | 1.13 ± 0.2 | 1.22 ± 0.11 | 1.15 ± 0.05 | 1.17 ± 0.12 | 1.13 ± 0.16 | 1.21 ± 0.19
MFM223 BREAST | 1.12 ± 0.12 | 1.18 ± 0.094 | 1.07 ± 0.084 | 1.12 ± 0.076 | 0.849 ± 0.18 | 0.716 ± 0.081 | 0.719 ± 0.038 | 0.711 ± 0.035 | 1.19 ± 0.033 | 1.1 ± 0.08 | 1.17 ± 0.031 | 1.14 ± 0.099 | 1.22 ± 0.029 | 1.22 ± 0.015 | 1.2 ± 0.1 | 1.1 ± 0.1
MDAMB134 BREAST | 0.907 ± 0.16 | 0.994 ± 0.19 | 0.752 ± 0.12 | 0.9 ± 0.011 | 0.913 ± 0.26 | 0.663 ± 0.12 | 0.724 ± 0.1 | 0.74 ± 0.0085 | 1.12 ± 0.043 | 0.896 ± 0.18 | 1.36 ± 0.096 | 0.943 ± 0.063 | 1.12 ± 0.049 | 1.15 ± 0.37 | 0.927 ± 0.13 | 0.965 ± 0.098
NCIH441 LUNG | 1.03 ± 0.069 | 1.03 ± 0.043 | 1.16 ± 0.034 | 0.969 ± 0.072 | 1.02 ± 0.068 | 1 ± 0.022 | 1.07 ± 0.037 | 0.957 ± 0.083 | 1.04 ± 0.067 | 1.02 ± 0.12 | 1.08 ± 0.14 | 1.01 ± 0.077 | 1.1 ± 0.065 | 1.05 ± 0.11 | 1.01 ± 0.046 | 0.948 ± 0.051
